Measured values reported in PubChem BioAssay (NCI).
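Method: 48-hour compound exposure of cells in 96-well plates, five concentrations, linear interpolation of endpoints. GI50 marks 50% less growth. Definition used: TGI = concentration required for complete inhibition of growth.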

Key:
Assay in all cases: NCI anticancer screen, dose series, 48 h
[1] = test system: A549 NSCLC
[2] = test system: CAKI-1 renal
[3] = test system: EKVX NSCLC
[4] = test system: HCC-2998 colon
[5] = test system: HOP-92 NSCLC
[6] = test system: NCI-H226 lung
[7] = test system: NCI/ADR-RES ovarian
[8] = test system: OVCAR-8 ovarian
[9] = test system: SNB-75 CNS
[10] = test system: SW-620 colon

CCOC(=O)NC(OC)(C(F)(F)F)C(F)(F)F
TGI [1]: > 100 µM | TGI [2]: > 100 µM | TGI [3]: > 100 µM | TGI [4]: > 100 µM | TGI [5]: > 100 µM | TGI [6]: > 100 µM | TGI [7]: > 100 µM | TGI [8]: > 100 µM | TGI [9]: > 100 µM | TGI [10]: > 100 µM

CC(=O)Oc1c2c(c3n(c1=O)CCCC3)C(=O)N(c1ccccc1)C2=O
TGI [1]: > 100 µM | TGI [2]: > 100 µM | TGI [3]: > 100 µM | TGI [4]: 97.2 µM | TGI [5]: > 100 µM | TGI [6]: > 100 µM | TGI [7]: > 100 µM | TGI [8]: > 100 µM | TGI [9]: > 100 µM | TGI [10]: > 100 µM

Cc1cc(S(=O)(=O)Nc2nnc3cnc4ccccc4n23)c(S)cc1Cl
TGI [1]: > 100 µM | TGI [2]: > 100 µM | TGI [3]: > 100 µM | TGI [4]: > 100 µM | TGI [5]: > 85.9 µM | TGI [6]: > 100 µM | TGI [7]: > 100 µM | TGI [8]: > 100 µM | TGI [9]: > 100 µM | TGI [10]: > 100 µM

NC1=Nc2cc(Cl)ccc2Sc2nc3ccccc3n21
TGI [1]: > 100 µM | TGI [2]: > 100 µM | TGI [3]: > 100 µM | TGI [4]: > 100 µM | TGI [5]: 71 µM | TGI [6]: > 100 µM | TGI [7]: > 100 µM | TGI [8]: > 100 µM | TGI [9]: > 86.4 µM | TGI [10]: > 100 µM

O=C1C(Cl)=C(N(C(=O)c2ccccc2)C(=O)c2ccccc2)C(=O)c2ccccc21
TGI [1]: > 100 µM | TGI [2]: 23.3 µM | TGI [3]: > 100 µM | TGI [4]: 37.4 µM | TGI [5]: 34.8 µM | TGI [6]: > 100 µM | TGI [7]: > 100 µM | TGI [8]: > 100 µM | TGI [9]: 24 µM | TGI [10]: 24.3 µM

CN(C)c1ccc(/C=C(\NC(=O)c2ccccc2)C2=NC(CCC(=O)O)C(=O)O2)cc1 (configuration not stated)
TGI [1]: > 50 µM | TGI [2]: > 50 µM | TGI [3]: > 50 µM | TGI [4]: > 50 µM | TGI [5]: > 50 µM | TGI [6]: > 50 µM | TGI [7]: > 50 µM | TGI [8]: > 50 µM | TGI [9]: > 50 µM | TGI [10]: > 50 µM

Nc1nc(Cl)cc(NC2(CO)CCC2)n1
TGI [1]: > 100 µM | TGI [2]: > 100 µM | TGI [3]: > 100 µM | TGI [4]: > 100 µM | TGI [5]: > 100 µM | TGI [6]: > 100 µM | TGI [7]: > 100 µM | TGI [8]: > 100 µM | TGI [9]: > 100 µM | TGI [10]: > 100 µM

C=C(NC(=O)C(=C)NC(=O)c1csc(C2=NC3c4csc(n4)C4NC(=O)c5csc(n5)C(C(C)(O)C(C)O)NC(=O)C5CSC(=N5)/C(=C/C)NC(=O)C(C(C)O)NC(=O)c5csc(n5)C3(CC2)NC(=O)C(C)NC(=O)C(=C)NC(=O)C(C)NC(=O)C(C(C)CC)NC2C=Cc3c(C(C)O)cc(nc3C2O)C(=O)OC4C)n1)C(N)=O (configuration not stated)
TGI [1]: 58.4 µM | TGI [2]: > 100 µM | TGI [3]: > 44.1 µM | TGI [4]: > 39.9 µM | GI50 [5]: 8.07 µM | TGI [5]: > 100 µM | TGI [6]: 3.8 µM | TGI [7]: > 100 µM | GI50 [8]: 1.6 µM | TGI [8]: 10.8 µM | TGI [9]: > 24 µM | TGI [10]: 1.62 µM

COc1cc(OC)c2c3c(OC)cc(OC)c4c(=O)c(O)c(C[C@@H](C)O)c(c5c(C[C@@H](C)O)c(O)c(=O)c1c25)c43
TGI [1]: > 100 µM | TGI [2]: 53.2 µM | TGI [3]: > 100 µM | TGI [4]: 32 µM | TGI [5]: 35.4 µM | TGI [6]: 44.7 µM | TGI [7]: > 100 µM | TGI [8]: 58.4 µM | TGI [9]: 62.1 µM | TGI [10]: 35.6 µM

CCCCCCCCCCCCCCC(O)C[N+](C)(CCO)CCO (configuration not stated)
TGI [1]: 34.3 µM | TGI [2]: 9.59 µM | TGI [3]: 42.6 µM | TGI [4]: 3.51 µM | TGI [5]: 5.76 µM | TGI [6]: 5.63 µM | TGI [7]: 49 µM | TGI [8]: 18.8 µM | TGI [9]: 2.85 µM | TGI [10]: 23.7 µM

CC(=O)Oc1c(-c2ccccc2)sc2ccccc12
TGI [1]: 37.9 µM | TGI [2]: 22.8 µM | TGI [3]: 53 µM | TGI [4]: 32 µM | TGI [5]: 49.8 µM | TGI [6]: 28.8 µM | TGI [7]: 59.1 µM | TGI [8]: > 100 µM | TGI [9]: 34.8 µM | TGI [10]: > 100 µM

O=C(CCC=C(S(=O)(=O)c1ccccc1)S(=O)(=O)c1ccccc1)c1ccccc1
TGI [1]: 49.6 µM | TGI [2]: 31.1 µM | TGI [3]: 30.5 µM | TGI [4]: 21.7 µM | TGI [5]: 30.6 µM | TGI [6]: 37.3 µM | TGI [7]: 25.8 µM | TGI [8]: 16.7 µM | TGI [9]: 9.57 µM | TGI [10]: 15 µM

Cc1oc2c(c1C)S(=O)(=O)C(C#N)=C(N(C)C)N2
TGI [1]: > 100 µM | TGI [2]: > 100 µM | TGI [3]: > 100 µM | TGI [4]: > 100 µM | TGI [5]: > 100 µM | TGI [6]: > 100 µM | TGI [7]: > 100 µM | TGI [8]: > 100 µM | TGI [9]: > 100 µM | TGI [10]: > 100 µM

CCOC(=O)Nc1ccc2c(c1)c(CCCCCCc1nc3ccccc3c3ccc(NC(=O)OCC)cc13)nc1ccccc12
TGI [1]: > 100 µM | TGI [2]: > 100 µM | TGI [3]: > 100 µM | TGI [4]: > 100 µM | TGI [5]: 63 µM | TGI [6]: 81 µM | TGI [7]: > 100 µM | TGI [8]: 61.3 µM | TGI [9]: 45.3 µM | TGI [10]: > 100 µM

Cn1cc(-c2ccc3cc(-c4ccc(CC(=O)Nc5cc(C(C)(C)C)on5)cc4)cnc3c2)cn1
GI50 [1]: 1.72 µM | TGI [1]: > 100 µM | GI50 [2]: 0.426 µM | TGI [2]: 3.45 µM | GI50 [3]: 0.624 µM | TGI [3]: 3.45 µM | GI50 [4]: 2.89 µM | TGI [4]: 21 µM | GI50 [5]: 4.23 µM | TGI [5]: 26 µM | GI50 [6]: 2.46 µM | TGI [6]: 34.6 µM | GI50 [7]: 1.84 µM | TGI [7]: 5.11 µM | GI50 [8]: 2.16 µM | TGI [8]: > 100 µM | GI50 [9]: 1.11 µM | TGI [9]: 3.03 µM | GI50 [10]: 1.54 µM | TGI [10]: 3.99 µM

O=C(NC(=O)c1cc(-c2ccccc2)n[nH]1)c1ccccc1
TGI [1]: > 100 µM | TGI [2]: > 100 µM | TGI [3]: > 100 µM | TGI [4]: > 100 µM | TGI [5]: > 100 µM | TGI [6]: > 100 µM | TGI [7]: > 100 µM | TGI [8]: > 100 µM | TGI [9]: > 100 µM | TGI [10]: > 100 µM

Cc1ccc(-c2nc(N/N=C/c3ccc(O)cc3)c3ccccc3n2)cc1
TGI [1]: > 100 µM | TGI [2]: 31.8 µM | TGI [3]: 37.4 µM | TGI [4]: 30.8 µM | TGI [5]: > 100 µM | TGI [6]: > 100 µM | TGI [7]: > 100 µM | TGI [8]: > 100 µM | TGI [9]: 64 µM | TGI [10]: > 100 µM
